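In this assay, cells in 96-well plates receive the compound at five concentrations for 48 hours. Endpoints are linearly interpolated between the surrounding concentrations. GI50: concentration for 50% inhibition of growth. TGI marks complete inhibition of growth.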
How the values were obtained:
Assay in all cases: DTP human tumour cell line panel, 48 h
BT-549 breast = system: BT-549 breast
SW-620 colon = system: SW-620 colon
U251 CNS = system: U251 CNS
K-562 leukemia = system: K-562 leukemia
A549 NSCLC = system: A549 NSCLC
HS 578T breast = system: HS 578T breast
MCF7 breast = system: MCF7 breast
COLO 205 colon = system: COLO 205 colon
MALME-3M melanoma = system: MALME-3M melanoma
SNB-19 CNS = system: SNB-19 CNS

Structure (SMILES) | GI50 (BT-549 breast) | TGI (BT-549 breast) | GI50 (SW-620 colon) | TGI (SW-620 colon) | GI50 (U251 CNS) | TGI (U251 CNS) | GI50 (K-562 leukemia) | TGI (K-562 leukemia) | GI50 (A549 NSCLC) | TGI (A549 NSCLC) | GI50 (HS 578T breast) | TGI (HS 578T breast) | GI50 (MCF7 breast) | TGI (MCF7 breast) | GI50 (COLO 205 colon) | TGI (COLO 205 colon) | GI50 (MALME-3M melanoma) | TGI (MALME-3M melanoma) | GI50 (SNB-19 CNS) | TGI (SNB-19 CNS)
C=CC(=O)Nc1cccc(Nc2nc(Nc3ccc(OCCOC)cc3)ncc2F)c1 | 0.718 µM | 8.23 µM | 2.14 µM | 22.3 µM | 1.89 µM | 16 µM | 4.8 µM | > 100 µM | 2.77 µM | 13.1 µM | 1.17 µM | 6.97 µM | 2.54 µM | 17.2 µM | 2.39 µM | 11 µM | 3.08 µM | 20.9 µM | 3.91 µM | 37.4 µM
COc1ccc(C2C(C#N)=C(N)OC3=C2CCCc2ccc(F)cc23)cc1OC (stereo not given) | 19.4 µM | 42.5 µM | 12.5 µM | 30.3 µM | 17 µM | 35.9 µM | 26.6 µM | > 100 µM | 25.8 µM | > 69.6 µM | 22 µM | 51.5 µM | 28.1 µM | > 77.7 µM | 38.5 µM | > 95.8 µM | 18.5 µM | 40 µM | 30.2 µM | > 82.4 µM
O=P(O)(O)C(O)(Cn1ccnc1)P(=O)(O)O | > 34.4 µM | > 100 µM | > 100 µM | > 100 µM | > 59.1 µM | > 100 µM | > 100 µM | > 100 µM | > 95.7 µM | > 100 µM | 4.67 µM | > 45.5 µM | > 86.4 µM | > 100 µM | > 100 µM | > 100 µM | > 54.1 µM | > 100 µM | > 81.2 µM | > 100 µM
Cc1ccc([N+](=O)[O-])c2c(NCCCN(C)C)ccnc12 | – | > 100 µM | – | > 100 µM | – | > 100 µM | – | > 100 µM | – | > 100 µM | – | > 100 µM | – | > 100 µM | – | 31.8 µM | – | 44.8 µM | – | > 100 µM
COc1ccc(NC2=C(Br)C(=O)C(C)=C(C)C2=O)cc1 | 11.8 µM | 24.4 µM | 2.07 µM | 4.54 µM | 1.93 µM | 3.98 µM | 2.25 µM | > 100 µM | 18.7 µM | 45.7 µM | 11.8 µM | 57.5 µM | 1.78 µM | 3.77 µM | 21.3 µM | 51 µM | 14.5 µM | 28.3 µM | 10.5 µM | 22.8 µM
CCN(Cc1c(F)cccc1F)c1ccc(CO)c(Cl)c1 | 16.5 µM | 41.4 µM | 0.139 µM | > 90.4 µM | 0.195 µM | 32.5 µM | 0.209 µM | 28.2 µM | 0.445 µM | 10.7 µM | 20.4 µM | 77.4 µM | 0.0488 µM | 18.4 µM | 0.387 µM | 1.61 µM | 17.5 µM | 36.6 µM | 24.4 µM | > 100 µM
N#Cc1c(-c2ccccc2)nc2c(c(-c3ccccc3)nn2-c2ccccc2)c1-c1ccc(O)cc1 | 2 µM | 4.45 µM | 1.86 µM | 3.53 µM | 1.63 µM | 3.97 µM | 2.68 µM | > 100 µM | 2.57 µM | 6.87 µM | 1.41 µM | 4.46 µM | 1.86 µM | 4.76 µM | 2.61 µM | 6.31 µM | 1.62 µM | 3.83 µM | 1.9 µM | 3.8 µM
Cc1noc(C)c1-c1ccc2[nH]c(=O)n3c2c1OC[C@@H]3c1ccccn1 | 15.6 µM | > 100 µM | > 100 µM | > 100 µM | 30.9 µM | > 100 µM | 0.959 µM | > 100 µM | 2.92 µM | > 100 µM | 0.254 µM | > 31.2 µM | 0.329 µM | > 100 µM | 0.433 µM | > 100 µM | 1 µM | > 100 µM | 4.81 µM | > 100 µM
CNC(=O)c1ccc(-c2cnc3ncc(Cc4ccc5ncccc5c4)n3n2)cc1F | > 100 µM | > 100 µM | > 100 µM | > 100 µM | 75.1 µM | > 100 µM | > 100 µM | > 100 µM | > 100 µM | > 100 µM | 62.7 µM | > 100 µM | > 100 µM | > 100 µM | > 100 µM | > 100 µM | 62.7 µM | > 100 µM | > 100 µM | > 100 µM
Cc1ccc(C(=O)CC(Sc2cccc(Cl)c2Cl)c2ccc(Cl)cc2)cc1C (stereo not given) | 24.5 µM | 46.9 µM | 17.8 µM | 36 µM | 11.5 µM | 25.8 µM | 27.2 µM | > 100 µM | 19.2 µM | 52.6 µM | 27.9 µM | 75.2 µM | 15.9 µM | 36.1 µM | 20.8 µM | 46.5 µM | 15.5 µM | 39.9 µM | 27.5 µM | 78.8 µM
CCN(CCO)CCNc1ccc(C)c2sc3cc(Cl)ccc3c(=O)c12 | 3.78 µM | 14 µM | 1.27 µM | 2.77 µM | 1.4 µM | 2.79 µM | 0.32 µM | 1.42 µM | 1.73 µM | 3.28 µM | 1.76 µM | 4.46 µM | 1.21 µM | 2.78 µM | 1.14 µM | 2.62 µM | 1.86 µM | 3.51 µM | 1.58 µM | 3.17 µM
O=C(N/N=C/c1ccc(Cl)cc1Cl)c1ccccc1Nc1cccc(C(F)(F)F)c1 | 3.84 µM | 32.5 µM | 8.63 µM | > 100 µM | 3.07 µM | 9.64 µM | 4.86 µM | > 100 µM | 2.31 µM | 6.18 µM | 4.1 µM | 44.5 µM | 11.3 µM | > 100 µM | 2.73 µM | 9.37 µM | 2.62 µM | 10.5 µM | 2.5 µM | 6.93 µM
COc1cc(-c2cn(C)c(=O)c(C)c2C)cc(OC)c1CN1CC[C@H](N2CCN(c3ccc(N[C@H]4CCC(=O)NC4=O)cc3F)CC2)C(F)(F)C1 | 12.6 µM | 28.3 µM | 17.9 µM | 38 µM | 13.6 µM | 29.6 µM | 9.44 µM | > 100 µM | 12.3 µM | 31.1 µM | 4 µM | 38.5 µM | 3.16 µM | 29.6 µM | 14.4 µM | 37.4 µM | 15 µM | 30.1 µM | 14.8 µM | 31.6 µM

Reference: PubChem BioAssay (NCI)
